Data as given in PubChem BioAssay AID1259333 (Broad Institute, 2017).
Calls of active or inactive are those of the source. How the calls were made is not given here; tested in parental BL2 cells.

Assay: cell cytotoxicity, dose response, cytotoxicity control, CellTiter-Glo (AID 1259333);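 further: 0% = vehicle neutral controls and -100% = reference inhibitor positive controls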
Details: cytotoxicity, CellTiter-Glo ATP luminescence; at 3.5 µM (top of the series)

SMILES | activity change, negative = cytotoxicity
C[C@H](CO)N1C[C@H](C)[C@H](CN(C)CC2CCCCC2)Oc2ccc(NC(=O)Nc3ccc(C(F)(F)F)cc3)cc2C1=O | 32.8% (inactive)
C[C@@H]1CN([C@@H](C)CO)C(=O)Cc2cc(NS(=O)(=O)c3ccccc3)ccc2O[C@H]1CN(C)Cc1ccc(Cl)c(Cl)c1 | 24.1% (inactive)
C[C@]12CC[C@H](O)C[C@H]1CC[C@@H]1[C@@H]2CC[C@]2(C)[C@@H](c3ccc(=O)oc3)CC[C@]12O | 25.8% (inactive)
N#C[C@H]1[C@H](c2ccc(C#CC3CCCCC3)cc2)[C@@H](CO)N1C(=O)Nc1ccc(F)cc1 | 25.8% (inactive)
Cc1[nH]c2ccccc2c1C(c1ccccn1)N1CCC(C(N)=O)CC1 (stereo not given) | 29.7% (inactive)

Same assay, conditions: cytotoxicity, CellTiter-Glo ATP luminescence; at 10 µM (top of the series)

SMILES | activity change, negative = cytotoxicity
CCc1cnc(N2[C@H](C#N)[C@@H](c3ccccc3C3=CCCC3)[C@@H]2CO)s1 | -4.08% (inactive)
Cc1ccc(C(CC(=O)NCc2ccco2)c2ccc(OC(C)C)cc2)cc1 (stereo not given) | -3.48% (inactive)
CSC1SCC2C(=O)N(C)C(C(C)C)C(=O)OCC(NC(=O)c3cnc4ccccc4n3)C(=O)NC(C)C(=O)N(C)C1C(=O)N(C)C(C(C)C)C(=O)OCC(NC(=O)c1cnc3ccccc3n1)C(=O)NC(C)C(=O)N2C (stereo not given) | 62.7% (inactive)
CC(C)C1CC(N(C)C)=CC(=S)N1 (stereo not given) | 24.5% (inactive)
O=C1C=CC(=O)C2=C1C1c3ccccc3C2c2ccccc21 | 90.3% (inactive)
CCN(CC(=O)Nc1ccc(NC(C)=O)cc1)C(=O)C1CCCN(C(=O)c2ccc(Cl)cc2)C1 (stereo not given) | 33.9% (inactive)
CCCNC(=O)c1cc2c(c(-c3cccc(-c4cc5ccccc5o4)c3)n1)[C@H](CCO)N(C(=O)NC(C)C)C2 | 109% (inactive)
N#Cc1ccc(-c2ccc3c(c2)[C@H]2[C@H](CCN2C(=O)C2CC2)[C@@H](CO)N3)cc1 | 66.9% (inactive)
CN(C)c1ccc(NC(=O)c2cnsn2)cc1 | 17.7% (inactive)
NC(c1ccccc1)c1csc(NC(=O)Nc2cccc(C(F)(F)F)c2)n1 (stereo not given) | -26.9% (inactive)
O=C(COC(=O)c1ccccc1)c1ccc2c(c1)OCCO2 | 21.1% (inactive)
CCOc1ncccc1C(=O)OC(C)C(=O)Nc1ccc(Cl)cn1 (stereo not given) | 24.8% (inactive)
Cc1ccc(S(=O)(=O)CCC(=O)N(CCCN2CCOCC2)c2nc3ccccc3s2)cc1 | 29.5% (inactive)
CCCn1c(NC(=O)c2cccc(S(=O)(=O)N3CCCC3)c2)nc2ccccc21 | 12.5% (inactive)
O=C1CC(c2ccc3c(c2)OCO3)Sc2nc3ccccc3n21 (stereo not given) | 31.6% (inactive)
CCc1cnc(N2[C@H](C#N)[C@H](c3ccc(C#CCC4CCCC4)cc3)[C@@H]2CO)s1 | 56.6% (inactive)
Cc1ccc(-c2nn3c(C)nnc3c3ccccc23)cc1S(=O)(=O)NCc1ccccc1 | 16.1% (inactive)
O=C(O)c1ccc(Nc2nc3c(s2)CCCC3)cc1 | 38.4% (inactive)
CCCCCCCCCc1ccc(OCCOCCOCCOCCOCCOCCOCCOCCOCCO)cc1 | 13.3% (inactive)
N#C[C@@H]1[C@@H](c2ccc(C#CC3CCCCC3)cc2)[C@H](CO)N1C(=O)Nc1ccc(F)cc1 | 28.9% (inactive)
Cc1cc(C(=O)COC(=O)c2cccn2C)c(C)n1Cc1ccco1 | 23.8% (inactive)
CC(C)CC#Cc1ccc([C@@H]2[C@H]3CN(C(=O)Nc4ccccc4)CCCCN3[C@H]2CO)cc1 | 40.2% (inactive)
O=C(c1nnsc1S(=O)(=O)c1ccc(Cl)cc1)N1CCOCC1 | 40.8% (inactive)

SMILES | activity change, negative = cytotoxicity
COc1ccc(CN2CC3(CN(S(=O)(=O)c4ccc(C)cc4)C3)c3c([nH]c4cc(OC)ccc34)[C@H]2CO)cc1 | 20.2% (inactive)
Oc1ccc(Cc2ccccc2)c2cccnc12 | 41.6% (inactive)
CCc1cc2c(COC(=O)c3cc(S(=O)(=O)N4CCOCC4)ccc3F)cc(=O)oc2cc1O | 64% (inactive)
Cc1ccc2c(c1)C(O)(CC(=O)/C=C/C=C/c1ccccc1)C(=O)N2 (stereo not given) | 24.8% (inactive)
CC[C@@]1(O)C(=O)OCc2c1cc1n(c2=O)Cc2cc3cc(O)ccc3nc2-1 | 12.3% (inactive)
COc1ccc(CN(CCC(c2ccc(F)cc2)C2CCOC(C)(C)C2)C(=O)c2ccco2)cc1 (stereo not given) | 263% (inactive)
CCCCn1c(NC(=O)c2ccc(Br)o2)c(S(=O)(=O)c2ccccc2)c2nc3ccccc3nc21 | 62.4% (inactive)
Cc1noc(C)c1S(=O)(=O)Nc1ccc2c(c1)C(=O)N([C@@H](C)CO)C[C@@H](C)[C@@H](CN(C)C(=O)Nc1cccc3ccccc13)OCCCC[C@H](C)O2 | 25.9% (inactive)
C[C@H]1CCCC(=O)CCC/C=C/c2cc(O)cc(O)c2C(=O)O1 | 29.3% (inactive)
C(=Cc1c[nH]c2ccccc12)c1nccc2ccccc12 | 33.1% (inactive)
COCCn1c(C)cc(C(=O)COC(=O)c2ccc(Br)o2)c1C | 28.5% (inactive)
c1ccc(-c2nnc(-c3ccccn3)nn2)nc1 | 22.8% (inactive)
Cc1cnc(NC(=O)c2ccc(OCC3CCCO3)cc2)s1 (stereo not given) | 5.83% (inactive)
Cc1ccc2nc(-c3cc(-c4ccccc4)no3)cn2c1 | 51.5% (inactive)
O=C(C#Cc1ccccc1)c1ccccc1 | 43.8% (inactive)
CCOc1ccc(OCc2cccc(C(=O)N3CCOCC3)c2)cc1 | 42% (inactive)
CC(C)(C)n1cc(C(=O)c2ccc3ccccc3c2O)cn1 | 24.3% (inactive)
C[C@H]1CN([C@@H](C)CO)C(=O)Cc2cc(NS(=O)(=O)c3cccs3)ccc2O[C@@H]1CN(C)Cc1ccc(Cl)c(Cl)c1 | 29.8% (inactive)
CC[C@H]1CN2CCc3cc(OC)c(OC)cc3C2C[C@@H]1CC1NCCc2cc(OC)c(OC)cc21 (stereo not given in full) | -31.6% (inactive)
CC1=CC(=O)c2c(O)cccc2C1=O | 112% (inactive)
O=C(C1CCOCC1)N1CC(=O)N2[C@H](C1)[C@H](c1ccc(C#CCc3ccccc3)cc1)[C@@H]2CO | 95.5% (inactive)
O=C(C[C@H]1CC[C@@H]2[C@H](COC[C@H](O)CN2Cc2cc(F)ccc2F)O1)NCc1ccc(Oc2ccccc2)cc1 | 17% (inactive)
C[C@H]1CN([C@@H](C)CO)C(=O)c2c(c3ccccc3n2C)-c2ccccc2CO[C@H]1CN(C)S(=O)(=O)c1ccc([N+](=O)[O-])cc1 | 75.5% (inactive)

SMILES | activity change, negative = cytotoxicity
N#C[C@H]1[C@H](c2ccc(C#Cc3ccccc3F)cc2)[C@H](CO)N1C(=O)C1CC1 | 91.9% (inactive)
COc1cccc(S(=O)(=O)N(C)C[C@@H]2OCc3ccccc3-c3c(n(C)c4ccccc34)C(=O)N([C@@H](C)CO)C[C@@H]2C)c1 | 3.23% (inactive)
O=C(CN1C(=O)c2ccccc2S1(=O)=O)Nc1ncc(Cl)cc1Cl | 30.7% (inactive)
O=C(C1CCCC1)N1CC(=O)N2[C@@H](CO)[C@@H](c3ccc(C#CCc4ccccc4)cc3)[C@@H]2C1 | 53.6% (inactive)
COc1cc2c(cc1OC)C(=O)C(Br)CC2 (stereo not given) | 112% (inactive)
CC(C)Cc1ccc(C(C)/C=C2/CCC(CN3CCCCC3)C2=O)cc1 (stereo not given) | 26.2% (inactive)
C[C@H](CO)N1C[C@H](C)[C@H](CN(C)C(=O)C2CCOCC2)Oc2ncc(C#CCc3ccccc3)cc2C1=O | 0.181% (inactive)
COc1ccc(S(=O)(=O)N(C)C[C@H]2Oc3ccc(NC(=O)Nc4ccc(C(F)(F)F)cc4)cc3C(=O)N([C@@H](C)CO)C[C@@H]2C)cc1 | 33.2% (inactive)
CCCNC(=O)N1[C@H](C#N)[C@H](c2ccc(C#Cc3cccc(F)c3)cc2)[C@H]1CO | 16.9% (inactive)
CC1CCOC(=O)C=CC=CC(=O)OC2CC3OC4C5OC5(C)C(O)CC4(COC(=O)C1O)C2(C)C31CO1 (stereo not given) | 6.8% (inactive)
O=C1C(=NO)CCc2ccccc21 | 115% (inactive)
O=C1CCCCC1Sc1nnc(-c2ccc3c(c2)OCO3)o1 (stereo not given) | 25.1% (inactive)
CCCCc1nc2ccccc2[nH]1 | 13.9% (inactive)
C=C1C(=O)OC2C=C(CO)CCC=C(CO)CC(OC(=O)C(C)C)C12 (stereo not given) | 38.2% (inactive)
CC1CC(C)CC(C)C(O)C(C#N)=CC=CCC(C2CCCC2C(=O)O)OC(=O)CC(O)C(C)C1 (stereo not given) | -8.2% (inactive)
COC1=CC(=O)c2c(ccc3ncnc(N)c23)C1=O | 44.6% (inactive)
CC(=O)O[C@@H]1C[C@@]2(C)[C@H](c3ccoc3)C[C@H]3O[C@]32[C@]2(C)C(=O)C(=O)C3C(C)(C)C(=O)C=C[C@]3(C)C12 (stereo not given in full) | 188% (inactive)
Cc1ccc(S(=O)(=O)N[C@@H](Cc2ccccc2)C(=O)CCl)cc1 | 82.4% (inactive)
COc1ccc(C(=O)CCN2CCc3cc(OC)c(OC)cc3C2)cc1 | 22.2% (inactive)
C=C1C(=O)OC2C=C(CO)C3OC3C3OC3(C)CC(OC(=O)/C(=C/C)COC(C)=O)C12 (stereo not given) | 17.5% (inactive)
CS(=O)(=O)c1ccc(C(=O)OCC(=O)NC(=O)C2CCCCC2)cc1[N+](=O)[O-] | 42.9% (inactive)

Same assay, conditions: cytotoxicity, CellTiter-Glo ATP luminescence; at 11 µM (top of the series)

SMILES | activity change, negative = cytotoxicity
C[C@@H]1CN([C@H](C)CO)C(=O)Cc2cc(NC(=O)Cc3cn(C)c4ccccc34)ccc2O[C@H]1CN(C)Cc1ccc(C(F)(F)F)cc1 | 6.35% (inactive)
N#C[C@@H]1[C@@H](c2ccccc2-c2ccc(F)cc2)[C@H](CO)N1C(=O)NC1CCCCC1 | 19.3% (inactive)
COc1ccc(-c2ccc([C@H]3[C@@H](C#N)N(C(=O)c4cccc(F)c4)[C@H]3CO)cc2)cc1 | 24% (inactive)
